Experimental data as given in the NIST ThermoML archive (doi:10.1016/j.fluid.2017.08.022).

Conditions: for mass density: 100 kPa, Liquid, Buoyancy - hydrostatic balance with magnetic suspension - one sinker

CCCCn1cc[n+](C)c1.[Cl-] [1-butyl-3-methylimidazolium chloride]
surface tension liquid-gas [mN/m]
Conditions	Ring tensiometer	Wilhelmy Plate
303.11 K	50.32	–
308.23 K	–	49.64
308.27 K	50.3	–
313.06 K	–	49.26
313.07 K	49.73	–
318.04 K	49.68	–
318.07 K	–	48.97
323.1 K	49.23	48.58
327.9 K	–	48.24
327.96 K	48.8	–
333.82 K	–	47.81
333.85 K	48.35	–
338.23 K	48.24	–
338.28 K	–	47.55
342.85 K	47.76	–
343.23 K	–	47.16
348.79 K	47.38	–
348.85 K	–	46.9
353.81 K	–	46.5
353.87 K	47.16	–
357.26 K	–	46.29
357.34 K	46.88	–
364.83 K	46.46	–
364.9 K	–	45.76

Conditions	mass density [kg/m3]
313.05 K	1073.4
318.21 K	1070.57
323.11 K	1067.9
328.37 K	1065.5
334.27 K	1062.01
338.89 K	1059.46
343.88 K	1056.78
349.01 K	1054.21
353.91 K	1051.34
357.34 K	1049.12
364.78 K	1044.98

CCCCCCCCCCn1cc[n+](C)c1.[Cl-] [1-decyl-3-methylimidazolium chloride]
Conditions	surface tension liquid-gas [mN/m]
317.84 K, Ring tensiometer	27.09
323.12 K, Wilhelmy Plate	26.44
323.14 K, Ring tensiometer	26.85
328.25 K, Wilhelmy Plate	26.12
328.26 K, Ring tensiometer	26.45
333.1 K, Wilhelmy Plate	25.87
333.13 K, Ring tensiometer	26.14
338.32 K, Wilhelmy Plate	25.57
338.37 K, Ring tensiometer	25.54
342.9 K, Wilhelmy Plate	25.37
342.95 K, Ring tensiometer	25.7
348.09 K, Wilhelmy Plate	25.15
348.13 K, Ring tensiometer	25.61
353.32 K, Wilhelmy Plate	24.85
353.33 K, Ring tensiometer	24.76
358.44 K, Wilhelmy Plate	24.59
358.57 K, Ring tensiometer	24.5

Conditions	mass density [kg/m3]
317.88 K	973.64
323.19 K	970.69
328.33 K	968.07
333.2 K	964.94
338.44 K	962.23
343.26 K	958.59
348.19 K	956.59
353.38 K	953.42
358.17 K	950.62
363.44 K	947.62

CCn1cc[n+](C)c1.[Cl-] [1-ethyl-3-methylimidazolium chloride]
Conditions	mass density [kg/m3]
313.38 K	1134.76
318.3 K	1132.06
323.25 K	1129.33
328.1 K	1126.5
333.15 K	1124.02
338.1 K	1120.96
342.86 K	1118.28
347.66 K	1115.32
353.21 K	1112.21
359.06 K	1109.07
364.85 K	1106.29

surface tension liquid-gas [mN/m]
Conditions	Ring tensiometer	Wilhelmy Plate
333.2 K	62.56	62.6
338.15 K	62.12	–
338.24 K	–	62.26
343.38 K	62.16	61.82
348.57 K	–	61.51
348.58 K	61.59	–
353.3 K	61.45	–
353.32 K	–	61.1
358.44 K	60.8	–
358.5 K	–	60.64
364.76 K	60.05	–
364.96 K	–	60.2

CCCCCCn1cc[n+](C)c1.[Cl-] [1-hexyl-3-methylimidazolium chloride]
surface tension liquid-gas [mN/m]
Conditions	Ring tensiometer	Wilhelmy Plate
303.19 K	39.83	–
303.22 K	–	39.37
308.21 K	–	39.15
308.22 K	39.58	–
312.93 K	–	38.95
312.95 K	39.37	–
318.33 K	39.1	38.69
323.1 K	–	38.45
323.12 K	38.84	–
328.18 K	–	38.17
328.2 K	38.54	–
333.27 K	–	37.94
333.31 K	38.3	–
338.68 K	–	37.66
338.71 K	37.97	–
343.01 K	–	37.44
343.06 K	37.74	–
348.1 K	–	37.16
348.15 K	37.52	–
353.53 K	–	36.93
353.63 K	37.19	–
358.12 K	–	36.68
358.24 K	37	–
363.07 K	–	36.42
363.17 K	36.72	–

Conditions	mass density [kg/m3]
303.22 K	1035.05
308.25 K	1032.18
313 K	1029.5
318.38 K	1026.54
323.18 K	1023.64
328.31 K	1020.97
333.34 K	1017.64
338.73 K	1014.46
343.06 K	1011.76
348.19 K	1009.28
353.71 K	1006.44
358.14 K	1004
363.17 K	1001.49

CCC[n+]1ccn(C)c1.[Cl-] [1-methyl-3-propylimidazolium chloride]
surface tension liquid-gas [mN/m]
Conditions	Ring tensiometer	Wilhelmy Plate
308.21 K	56.7	–
313.04 K	–	55.61
313.07 K	56.45	–
318.32 K	56.27	–
318.34 K	–	55.41
323.54 K	55.92	54.98
328.41 K	–	54.7
328.46 K	55.49	–
333.49 K	–	54.42
333.5 K	55.37	–
337.95 K	–	54.09
338 K	54.98	–
343.39 K	–	53.8
343.45 K	54.58	–
348.34 K	–	53.59
348.39 K	54.3	–
353.07 K	–	53.29
353.11 K	54.07	–
358.45 K	–	52.95
358.5 K	53.69	–
363.91 K	53.27	–
364.37 K	–	52.57

Conditions	mass density [kg/m3]
308.26 K	1103.45
313.1 K	1100.71
318.25 K	1097.5
323.58 K	1094.84
328.52 K	1091.95
333.54 K	1089.17
338.03 K	1086.64
343.46 K	1083.12
348.39 K	1080.73
353.12 K	1078.37
358.51 K	1075.69
363.89 K	1071.76

Cl.Cn1ccnc1 [1-methylimidazolium chloride]
Conditions	mass density [kg/m3]
333.65 K	1195.33
338.68 K	1192.04
343.7 K	1187.98
347.72 K	1186.51
353.06 K	1184.13
359.06 K	1180.78
363.86 K	1177.41

surface tension liquid-gas [mN/m]
Conditions	Ring tensiometer	Wilhelmy Plate
333.66 K	67.02	–
333.67 K	–	66.84
338.7 K	66.37	66.5
343.19 K	–	66.13
343.24 K	66.48	–
348.1 K	66.18	–
348.11 K	–	65.78
352.35 K	–	65.4
352.38 K	65.96	–
359.12 K	65.47	–
359.17 K	–	64.87
363.94 K	65.12	–
364 K	–	64.58
